Assay results: PMC6987120, “Structural insights into ATP hydrolysis by the MoxR ATPase RavA and the LdcI-RavA cage-like complex” (Communications Biology, 2020)

Legend:
RavA = biological target: T1, RavA (Escherichia coli, UniProt P31473); assay: cryo-EM, […] and […] A maps with flexible fitting; assay type: binding; details: 1 mM ADP; intersubunit site; spiral with five ADP, closed ring with four ADP per hexamer
T1 construct: homohexamer (6 copies), open spiral and C2-symmetric closed ring; site at the interface of adjacent monomers

LdcI–RavA complex [1] = biological target: T2, LdcI–RavA complex (Escherichia coli, UniProt P31473); assay: cryo-EM, […] and […] A maps with flexible fitting; assay type: binding; details: 2 mM ADP, 10 mM MgCl2, 0.1 mM PLP, pH 7.9; low local resolution of RavA
T2 construct: purified RavA and LdcI mixed in vitro; LdcI expressed in a ppGpp-null E. coli MG1655 host; with Inducible lysine decarboxylase

LdcI–RavA complex [2] = biological target: T2, LdcI–RavA complex; assay: ATPase assay, inorganic phosphate by Fiske and Subbarow; assay type: biochemical; details: 2 mM ATP, 10 mM MgCl2, 50 mM MES/Tris pH 5-9, 25 °C; three-fold molar excess of LdcI

T2 sequence (P31473 whole entry): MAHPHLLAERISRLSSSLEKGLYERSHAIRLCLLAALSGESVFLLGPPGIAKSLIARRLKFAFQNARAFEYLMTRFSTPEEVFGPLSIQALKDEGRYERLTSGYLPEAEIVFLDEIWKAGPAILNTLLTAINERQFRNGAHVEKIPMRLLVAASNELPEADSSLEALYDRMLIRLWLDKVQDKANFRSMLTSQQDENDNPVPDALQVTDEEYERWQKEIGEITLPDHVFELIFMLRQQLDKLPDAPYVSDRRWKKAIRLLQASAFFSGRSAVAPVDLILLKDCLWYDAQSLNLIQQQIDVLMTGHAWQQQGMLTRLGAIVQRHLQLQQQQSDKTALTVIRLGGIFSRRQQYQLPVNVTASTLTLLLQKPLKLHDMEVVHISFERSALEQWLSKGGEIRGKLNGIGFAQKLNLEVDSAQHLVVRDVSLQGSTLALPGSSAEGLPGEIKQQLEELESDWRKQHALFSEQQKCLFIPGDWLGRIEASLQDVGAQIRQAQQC
T2 sequence (P0A9H3 whole entry partner): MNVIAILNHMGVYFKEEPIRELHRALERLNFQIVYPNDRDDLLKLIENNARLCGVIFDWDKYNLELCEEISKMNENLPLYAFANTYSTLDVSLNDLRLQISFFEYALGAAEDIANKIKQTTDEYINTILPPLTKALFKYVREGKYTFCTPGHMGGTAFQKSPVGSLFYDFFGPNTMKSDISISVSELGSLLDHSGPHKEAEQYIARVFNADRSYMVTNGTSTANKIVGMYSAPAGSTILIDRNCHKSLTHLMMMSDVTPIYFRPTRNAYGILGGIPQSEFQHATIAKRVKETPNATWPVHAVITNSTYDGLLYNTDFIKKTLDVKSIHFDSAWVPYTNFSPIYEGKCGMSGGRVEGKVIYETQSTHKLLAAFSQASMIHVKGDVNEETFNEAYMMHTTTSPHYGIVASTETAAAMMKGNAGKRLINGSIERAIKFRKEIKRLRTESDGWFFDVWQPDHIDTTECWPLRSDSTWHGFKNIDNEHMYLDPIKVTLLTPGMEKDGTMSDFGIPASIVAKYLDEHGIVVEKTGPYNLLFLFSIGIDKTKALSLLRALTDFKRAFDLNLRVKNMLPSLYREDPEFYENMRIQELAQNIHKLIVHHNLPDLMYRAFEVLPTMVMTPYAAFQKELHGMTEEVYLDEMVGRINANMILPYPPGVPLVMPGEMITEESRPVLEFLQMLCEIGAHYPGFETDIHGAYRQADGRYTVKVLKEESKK
T1 sequence (P31473 whole entry): as the sequence (P31473 whole entry) above

Row | Structure (SMILES) | cryo-EM, 5.96 and 6.94 A maps with flexible fitting (RavA) | cryo-EM, 7.6 and 7.8 A maps with flexible fitting (LdcI–RavA complex [1]) | ATPase assay, inorganic phosphate by Fiske and Subbarow (LdcI–RavA complex [2])
1 | Nc1ncnc2c1ncn2[C@@H]1O[C@H](COP(=O)(O)OP(=O)(O)O)[C@@H](O)[C@H]1O [ADP] | The map contains densities attributed to five ADP molecules bound to the interface | Cryo-EM maps of the two classes of the LdcI–RavA complex in ADP-bound state | 
2 | Nc1ncnc2c1ncn2[C@@H]1O[C@H](COP(=O)(O)OP(=O)(O)OP(=O)(O)O)[C@@H](O)[C@H]1O [ATP] |  |  | RavA is still able to efficiently hydrolyse ATP in the LdcI–RavA cage
